Experiments:
endogenous DYRK1A = biological target: T1, endogenous DYRK1A (Homo sapiens, UniProt Q13627); experiment: Western blot of endogenous DYRK1A protein in HEK293 cells; format: cell-based; details: CaNDY 2 μM, 4 days
T1 construct: endogenous in cells; host or cells: HEK293
Procedure: We investigated whether CaNDY destabilizes DYRK1A as ganetespib does. […] Next we examined whether CaNDY decreased endogenous DYRK1A protein. HEK293 cells were cultured for 0–4 days with CaNDY (2 μM) and then subjected to SDS-PAGE followed by Western blot analysis using antibodies against DYRK1A and GAPDH. […] The treated cells were also subjected to reverse transcription followed by quantitative PCR analysis.
(§1) Western blot analysis was performed using the antibodies described above. In brief, total cell lysates were separated by SDS-PAGE (5–20% gels; ATTO, Tokyo, Japan) under reducing conditions and then transferred to a PVDF membrane (PALL, SP, Brazil). Antibody reactions were performed with Can Get Signal® Immunoreaction Enhancer Solution (Toyobo). Peroxidase activities on the membrane were visualized with ECL Western Blotting Detection Reagents (GE Healthcare) or ImmunoStar® LD (Wako Pure Chemical Industries, Osaka, Japan), and a ChemiDoc^TM MP Imaging System (Bio-Rad, Hercules, CA, USA).

DYRK1A = DYRK1A (Homo sapiens, UniProt Q13627); experiment: In vitro kinase assay, substrate DYRKtide-F; format: biochemical; design: full-length human recombinant kinases were expressed using a baculovirus expression system as amino-terminal GST-fusion proteins; GST (N); purchased Carna Biosciences; host or cells: baculovirus expression system; details: 25 μM ATP, 1 μM DYRKtide-F; read-out: IC50, substrate phosphorylation
Text: (§2) Detailed information on the assay conditions is available on the website of Carna Biosciences (http://www.carnabio.com/english/index.html; Kobe, Japan). In brief, full-length human recombinant kinases were expressed using a baculovirus expression system as amino-terminal GST-fusion proteins, and purified by glutathione-Sepharose chromatography. The GenBank accession numbers of DYRK1A, DYRK1B, DYRK2, and DYRK3 were NP_001387.2, NP_004705.1, NP_003574.1, and NP_003573.2. […] For each compound, a DMSO solution was diluted in assay buffer to yield a final concentration of 1% DMSO. After incubation for one hour at room temperature, substrate phosphorylation was analyzed by electrophoretic separation of the substrate and products using a Caliper LC3000 platform (Caliper Life Sciences, Mountain View, CA, USA). The phosphorylated product (P)/(P + substrate) ratio was calculated at each concentration of each small molecule and the percent inhibition was expressed relative to a control assay in the absence of the small molecule. […] The IC50 of each compound was calculated by interpolation on a log-concentration-response curve fitted with a four-parameter logistic equation.

DYRK1B = DYRK1B (Homo sapiens, UniProt Q9Y463); experiment: In vitro kinase assay, substrate DYRKtide-F; format: biochemical; design: full-length human recombinant kinases were expressed using a baculovirus expression system as amino-terminal GST-fusion proteins; GST (N); purchased Carna Biosciences; host or cells: baculovirus expression system; details: 50 μM ATP, 1 μM DYRKtide-F
Text: as §2

PKCα = biological target: T2, PKCα (Homo sapiens, UniProt P17252); experiment: Kinase panel, CaNDY 1 µM; format: biochemical; details: CaNDY 1 µM relative to DMSO
T2 construct: purchased Carna Biosciences

CK2α = biological target: T3, CK2α (Homo sapiens, UniProt P68400); experiment: Western blot of kinase expression in HEK293 cells; format: cell-based; details: CaNDY 2 μM, 4 days
T3 construct: endogenous in cells; host or cells: HEK293
Procedure: To check selectivity of CaNDY for other kinases, we first examined protein expression of several kinases in HEK293 cells treated with CaNDY (2 μM) for 4 days. […] Third, protein expression of these kinases targeted by CaNDY (DYRK1A, DYRK1B, CLK1, and Haspin) was reassessed by Western blot analysis as performed in Fig. 7b.
as §1

FLT1 = biological target: T4, FLT1 (Homo sapiens, UniProt P17948); experiment: Kinase panel, CaNDY 1 µM; format: biochemical; details: CaNDY 1 µM relative to DMSO
T4 construct: purchased Carna Biosciences

p70S6K = biological target: T5, p70S6K (Homo sapiens, UniProt P23443); experiment: Kinase panel, CaNDY 1 µM; format: biochemical; details: CaNDY 1 µM relative to DMSO
T5 construct: purchased Carna Biosciences

PIM2 = biological target: T6, PIM2 (Homo sapiens, UniProt Q9P1W9); experiment: Kinase panel, CaNDY 1 µM; format: biochemical; details: CaNDY 1 µM relative to DMSO
T6 construct: purchased Carna Biosciences
T6 sequence (Q9P1W9 whole entry): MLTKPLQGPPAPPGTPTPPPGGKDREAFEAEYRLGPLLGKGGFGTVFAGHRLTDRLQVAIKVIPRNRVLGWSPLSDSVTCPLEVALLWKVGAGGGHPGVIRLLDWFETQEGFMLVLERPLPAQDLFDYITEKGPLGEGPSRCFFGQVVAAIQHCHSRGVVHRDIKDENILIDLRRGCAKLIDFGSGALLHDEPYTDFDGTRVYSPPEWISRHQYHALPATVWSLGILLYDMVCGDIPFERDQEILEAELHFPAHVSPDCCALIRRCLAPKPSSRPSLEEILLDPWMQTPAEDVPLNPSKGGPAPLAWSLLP

T4 sequence (P17948 27-1338): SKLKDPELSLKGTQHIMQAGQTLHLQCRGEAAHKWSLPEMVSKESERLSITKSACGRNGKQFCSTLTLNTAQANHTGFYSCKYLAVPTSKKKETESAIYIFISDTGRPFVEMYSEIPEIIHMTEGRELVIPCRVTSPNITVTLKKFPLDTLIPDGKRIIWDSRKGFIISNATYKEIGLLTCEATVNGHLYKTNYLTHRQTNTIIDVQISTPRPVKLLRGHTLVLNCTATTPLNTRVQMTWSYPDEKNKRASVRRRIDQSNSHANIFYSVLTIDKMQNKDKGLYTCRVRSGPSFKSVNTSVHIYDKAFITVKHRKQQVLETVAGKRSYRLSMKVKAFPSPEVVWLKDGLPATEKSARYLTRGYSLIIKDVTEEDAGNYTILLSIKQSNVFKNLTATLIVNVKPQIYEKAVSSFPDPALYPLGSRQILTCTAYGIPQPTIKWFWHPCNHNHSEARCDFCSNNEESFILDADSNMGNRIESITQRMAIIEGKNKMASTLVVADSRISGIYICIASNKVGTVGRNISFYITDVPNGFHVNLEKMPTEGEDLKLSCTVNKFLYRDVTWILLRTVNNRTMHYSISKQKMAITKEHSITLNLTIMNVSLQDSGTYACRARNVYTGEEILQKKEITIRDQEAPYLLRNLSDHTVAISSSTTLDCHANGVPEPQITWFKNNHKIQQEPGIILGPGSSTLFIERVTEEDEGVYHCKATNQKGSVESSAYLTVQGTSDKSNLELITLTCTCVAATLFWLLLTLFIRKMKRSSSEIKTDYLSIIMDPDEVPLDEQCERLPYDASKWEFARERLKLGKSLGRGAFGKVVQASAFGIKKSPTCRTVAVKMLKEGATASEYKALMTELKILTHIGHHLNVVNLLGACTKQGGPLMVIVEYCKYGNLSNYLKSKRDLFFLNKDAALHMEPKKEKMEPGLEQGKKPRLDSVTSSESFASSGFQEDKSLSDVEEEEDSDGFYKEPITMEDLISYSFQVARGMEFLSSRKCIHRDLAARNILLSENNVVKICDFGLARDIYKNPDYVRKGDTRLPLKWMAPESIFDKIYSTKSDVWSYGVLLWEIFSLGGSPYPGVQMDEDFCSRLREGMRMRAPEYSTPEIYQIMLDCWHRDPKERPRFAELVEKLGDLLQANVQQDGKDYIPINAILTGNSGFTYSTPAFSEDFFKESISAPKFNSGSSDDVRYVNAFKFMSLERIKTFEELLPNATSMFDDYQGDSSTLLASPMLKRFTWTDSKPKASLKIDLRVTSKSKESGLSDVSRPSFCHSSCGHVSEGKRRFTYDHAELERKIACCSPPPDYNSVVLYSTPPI
T5 sequence (P23443 whole entry): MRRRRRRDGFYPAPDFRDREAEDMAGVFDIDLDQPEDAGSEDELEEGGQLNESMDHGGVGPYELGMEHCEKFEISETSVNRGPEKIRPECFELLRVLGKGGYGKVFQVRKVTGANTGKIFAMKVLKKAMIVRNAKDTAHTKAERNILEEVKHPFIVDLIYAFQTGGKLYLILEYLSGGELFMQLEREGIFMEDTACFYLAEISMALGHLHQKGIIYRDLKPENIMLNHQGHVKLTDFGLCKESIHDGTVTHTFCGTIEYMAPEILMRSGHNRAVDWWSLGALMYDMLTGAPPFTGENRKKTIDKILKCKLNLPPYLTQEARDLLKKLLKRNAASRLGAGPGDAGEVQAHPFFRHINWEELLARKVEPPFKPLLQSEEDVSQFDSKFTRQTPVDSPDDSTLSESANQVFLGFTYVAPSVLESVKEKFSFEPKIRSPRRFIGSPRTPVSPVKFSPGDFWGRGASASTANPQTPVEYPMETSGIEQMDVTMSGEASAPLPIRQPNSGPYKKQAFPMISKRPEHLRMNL
Sequence of DYRK1B (Q9Y463 whole entry, the tested form may be a part): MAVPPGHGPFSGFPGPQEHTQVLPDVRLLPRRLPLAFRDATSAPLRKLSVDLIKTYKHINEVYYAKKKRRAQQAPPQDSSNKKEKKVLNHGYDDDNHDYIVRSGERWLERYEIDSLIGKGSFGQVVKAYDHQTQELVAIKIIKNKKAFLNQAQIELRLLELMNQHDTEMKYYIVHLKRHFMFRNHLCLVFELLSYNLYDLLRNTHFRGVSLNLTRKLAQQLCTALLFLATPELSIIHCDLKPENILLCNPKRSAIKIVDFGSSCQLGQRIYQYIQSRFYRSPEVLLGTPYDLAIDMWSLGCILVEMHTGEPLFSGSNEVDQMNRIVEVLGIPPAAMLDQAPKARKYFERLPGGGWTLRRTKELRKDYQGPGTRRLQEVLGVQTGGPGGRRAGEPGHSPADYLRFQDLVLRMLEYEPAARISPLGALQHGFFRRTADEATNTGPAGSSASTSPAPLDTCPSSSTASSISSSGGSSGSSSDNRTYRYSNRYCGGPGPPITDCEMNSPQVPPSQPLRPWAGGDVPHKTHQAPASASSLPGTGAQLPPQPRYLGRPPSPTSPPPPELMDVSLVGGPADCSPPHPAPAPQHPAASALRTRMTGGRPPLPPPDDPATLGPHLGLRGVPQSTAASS
T3 sequence (P68400 whole entry): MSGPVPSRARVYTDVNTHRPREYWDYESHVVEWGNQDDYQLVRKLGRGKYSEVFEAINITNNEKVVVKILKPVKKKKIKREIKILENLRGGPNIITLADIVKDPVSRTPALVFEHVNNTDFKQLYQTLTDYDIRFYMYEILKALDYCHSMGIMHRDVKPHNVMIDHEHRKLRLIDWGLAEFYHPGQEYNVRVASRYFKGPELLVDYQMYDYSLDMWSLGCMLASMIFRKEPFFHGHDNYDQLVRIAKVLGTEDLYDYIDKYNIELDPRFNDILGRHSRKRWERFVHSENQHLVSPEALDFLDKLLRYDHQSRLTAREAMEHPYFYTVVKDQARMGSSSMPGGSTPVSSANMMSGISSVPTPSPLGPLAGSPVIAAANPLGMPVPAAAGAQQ

## [H]/N=C1/NC(=O)C(=Cc2ccc3c(c2)CCO3)S1 [CaNDY, (Z)-5-[(2,3-dihydrobenzofuran-5-yl)methylene]-2-iminothiazolidin-4-one]
Endogenous DYRK1A
  accumulation of endogenous DYRK1A: prevented accumulation of endogenous DYRK1A
Endogenous DYRK1A; Fig. 7d
  protein expression of DYRK1A (reassessed): decreased expression
DYRK1A
  IC50: 7.9 nM
DYRK1B
  IC50: 24.1 nM
PKCα
  remaining activity at 1 µM: 82.4%
CK2α
  protein expression of CK2α: did not decrease
FLT1
  remaining activity at 1 µM: 102%
p70S6K
  remaining activity at 1 µM: 89.7%
PIM2
  remaining activity at 1 µM: 71.6%
